Source: patent US11980613B2, “Methods for reversing HIV latency using BAF complex modulating compounds” (priority 2018, dated 2024)

Tested on: BAF target genes c-MYC and p21
Assay: Biomarkers: mRNA of BAF target genes p21 and c-MYC in CD4+ T cells
Assay type: cell-based, human
Method: [drawing 27] i. BRD-K25923209: To Macrocycle 2141-039b (0.804 g, 1.550 mmol) dissolved in MeOH (Volume: 15.50 ml) was added tin(II) chloride dihydrate (3.50 g, 15.50 mmol). The reaction mixture was stirred at 40° C. for 24 h until LC/MS indicated complete consumption of starting material (nitro) and presence of desired mass. Upon completion, the reaction mixture was concentrated and the resulting residue was dissolved in EtOAc and washed with 2 M aq. KOH (2×). The combined aqueous layers were washed with EtOAc (4×). The resulting organic layers were washed with brine, saturated aqueous NaHCO3, water, and brine, dried over MgSO4, filtered, and concentrated. The crude aniline was sufficiently pure to use in the capping step and therefore was used without purification. Note: The workup as described above produces a lot of precipitate/emulsion. This can be overcome by extensive washing or alternately, the reaction can be quenched with 1 volume of 1 M NaOH, stirred with celite for 10 minutes, and filtered prior to workup to yield 33.8% (17.2 mg) over 3 steps. (M+H)^+ calculated=489.286 (M+H)^+ average (3 ESI replicates)=489.2866±0.92. j. BRD-K80443127: A screwtop vial was charged with aniline (BRD-K25923209) (43.3 mg, 0.089 mmol) and CH2Cl2 (Volume: 886 μl, Density: 1.325 g/ml). Isopropyl chloroformate (115 μl, 0.115 mmol) and DIEA (46.4 μl, 0.266 mmol) were added dropwise and reaction stirred under ambient conditions for 1 h. […] The reaction mixture was loaded directly onto SiO2 and purified via ISCO (1-12% MeOH in CH2Cl2, 20 min); Collected fractions 40-44 to afford the product as a yellow oil in 33.8% (17.2 mg) yield. (M+H)^+ calculated=575.3228 (M+H)^+ average (3 ESI replicates)=575.3235±1.32. k. BRD-K04244835: A 2.5 mL microwave vial was charged with aniline (BRD-K25923209) (40 mg, 0.082 mmol) and EtOH (Volume: 819 μl, Density: 0.81 g/ml). Squaramide (CRE-III-001) (20.75 mg, 0.098 mmol), DIEA (42.8 μl, 0.246 mmol), and DMAP (2.000 mg, 0.016 mmol) were added in sequence and the vial was sealed. […] (M+H)^+ calculated=654.365 (M+H)^+ average (3 ESI replicates)=654.3661±1.64. […]

SMILES: CO[C@H]1CN(C)C(=O)c2cc(NC(=O)OC(C)C)ccc2OC[C@H](C)N(Cc2ccc(-c3ccccn3)cc2)C[C@@H]1C [BRD-K80443127]
- differential expression of c-MYC and p21 (CD4+ T cells from 3 healthy donors, 3 μM, 16 hours): consistent with BAF inhibition
- C-MYC transcript levels (three patients, 10 μM): significant decrease
- p21 transcript levels (three patients, 10 μM): significant decrease
